# Assay results: publication PMC10443802, “Targeting a xenobiotic transporter to ameliorate vincristine-induced sensory neuropathy” (JCI Insight, 2023)
# “And” between values parts separate entries of the source, which are not always exact repeats. Equal values may be shown once.
# How the values were obtained:
# [1] = Vincristine accumulation in DRG and liver (tissue to plasma AUC ratio)
# Protocol: injection at a dose of 1 mg/kg. Whole blood samples were collected 0.08, 0.25, 0.5, 1, and 4 h, and livers were collected at the final time point.
# specimens were stored at -80°C until further processing.
# stainless steel bead (Qiagen) and processed for 4 min at 40 Hz. Finally, the beads were removed, and the homogenized samples were stored at -80°C until analysis by LC-MS/MS.
# Pharmacokinetic parameters were calculated by non -compartmental analysis using Phoenix WinNonlin version 8.0 (Certara). Peak plasma concentration (C max) was determined by visual inspection of the data from the concentration-time curves. The linear trapezoidal rule was used to obtain the area under the plasma concentration-time curve (AUC), and drug levels in tissues were corrected for
# Quantiva triple quadrupole mass spectrometer from Thermo Fisher Scientific was used for LC-MS/MS
# analysis. An Accucore aQ column (150 × 2.1 mm, dp = 2.6 μm, Thermo Fisher Scientific) was protected
# volume was 5.0 μL. The temperature of the autosampler rack was 4°C, and the temperature of the
# column was maintained at 50°C. Mobile phase A consisted of water with 0.1% (v/v) formic acid and
# mobile phase B consisted of acetonitrile: methanol (1:1) with 0.1% (v/v) formic acid. The total run time […]
# Precursor molecular ions and product ions were recorded for confirmation and
# quantification was 5 ng/mL. […]
# mice [2] = system: mice
# mOATP1B2 [3] = target: T1, mOATP1B2 (Mus musculus, UniProt Q9JJL3); assay: Inhibition of EβG uptake in HEK293 cells overexpressing mOATP1B2; assay type: cell-based; conditions: HEK293 mOATP1B2; inhibitor 10 μM, 15-min pre-incubation
# T1 sequence (Q9JJL3 1-689): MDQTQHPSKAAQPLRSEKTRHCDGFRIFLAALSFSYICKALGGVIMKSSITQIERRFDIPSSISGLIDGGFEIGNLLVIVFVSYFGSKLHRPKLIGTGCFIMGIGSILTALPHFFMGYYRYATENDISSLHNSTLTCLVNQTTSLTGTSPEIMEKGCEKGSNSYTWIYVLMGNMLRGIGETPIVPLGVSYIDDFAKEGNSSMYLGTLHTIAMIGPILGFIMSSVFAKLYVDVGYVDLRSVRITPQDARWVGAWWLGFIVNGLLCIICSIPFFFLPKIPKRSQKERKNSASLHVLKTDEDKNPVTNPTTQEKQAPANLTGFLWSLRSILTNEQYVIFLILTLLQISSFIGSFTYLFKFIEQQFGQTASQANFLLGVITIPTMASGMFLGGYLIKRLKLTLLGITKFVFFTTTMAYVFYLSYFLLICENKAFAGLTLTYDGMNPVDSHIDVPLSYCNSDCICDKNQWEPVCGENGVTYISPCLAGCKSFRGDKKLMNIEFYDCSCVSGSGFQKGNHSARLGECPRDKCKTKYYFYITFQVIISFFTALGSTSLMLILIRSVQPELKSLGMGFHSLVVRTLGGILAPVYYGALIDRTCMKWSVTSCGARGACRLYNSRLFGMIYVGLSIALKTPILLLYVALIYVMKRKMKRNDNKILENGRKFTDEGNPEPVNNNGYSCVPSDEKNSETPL
# DRG neurons = assay: DRG morphology and morphometry (neuron cell area); assay type: in vivo, mouse
# mice [4] = assay: Thermal hyperalgesia, Hargreaves test (paw withdrawal latency)
# mOATP1B2 [5] = target: T1, mOATP1B2; assay: Inhibition of vincristine uptake in HEK293 cells overexpressing mOATP1B2; assay type: cell-based; conditions: HEK293 mOATP1B2; inhibitor 15 min pre-treatment
# mice [6] = assay: Nerve conduction studies (sciatic/digital and caudal nerve action potential amplitude and conduction velocity)
# rASBT = rASBT (Rattus norvegicus, UniProt Q62633); assay: Vincristine uptake screen, HeLa cells overexpressing rASBT; assay type: in vitro ADME
# Protocol: (§1) Relative uptake is expressed as percentage change compared with empty vector controls (n = 4–14 per group). […] Human OATP1B1 and OATP1B3 transporter–overexpressed cells were used as positive controls; empty vector controls were used as the negative control. […] Mechanical allodynia (C), thermal hyperalgesia (D), and sciatic nerve maximal action potential amplitudes (E) are expressed as percentage change relative to baseline values (n = 6–8 per group). Statistical analysis was performed using a 2-way ANOVA with Bonferroni’s post hoc test. **P < 0.01, ***P < 0.001, ****P < 0.0001, compared with baseline values. […] Data are shown as mean ± SEM. […]
# (§2) transfected with transporters of interest, including hOAT1, hOAT3, hOAT4, hOATP1A2, hOATP3A1, hOATP4A1, hOATP5A1, hOATP1C1, hOATP1B1, hOATP1B3, hOATP2B1, hOCT1, hOCT2, hOCTN1, hOCTN2, hASBT, hNTCP, hNPT1, hMATE1, hOSTα/β, hPEPT1, hPEPT2, rOatp1a1, rOatp1a4, rOatp1a5, rOatp1b2, rNtcp, rAsbt, rOat1, and rOct1. Cells were transfected with expression plasmid or vector control lacking any insert using Lipofectin reagent (Invitrogen). Sixteen hours thereafter, cells were washed with transport media (OPTIMEM, Invitrogen) and treated with radiolabeled drug. […] The cellular radioactivity was quantified by liquid scintillation counting as described above. […]
# OATP1B3 protein variants = assay: Vincristine transport by OATP1B3 single-nucleotide variants; assay type: in vitro ADME, human; conditions: single-nucleotide substitutions
# Protocol: Figure S2. […] (A) Single […]
# nucleotide polymorphisms (SNPs) activity percentage of OATP1B3 over-expressed cell after treated […]
# Statistical analysis was performed using one-way ANOVA with Dunnett’s […]
# (B) Schematic overview of […]
# week (cumulative dose of 4 mg/kg). Von-Frey tests were performed on day -1, 9, 16, 18, and 23. Thermal hyperalgesia (Hargreaves test) and nerve conduction studies of the sciatic and caudal nerve were measured on days -1 and 23. Tissue samples for morphologic evaluation were obtained on day 24. (C) […]
# and OATP1B2- deficient groups.
# Normalized mechanical allodynia (E) was expressed as a percentage change relative to baseline values (n = 6-8 per group). Statistical
# patients with cancer = conditions: cited from earlier work
# hOCTN1 = hOCTN1 (Homo sapiens, UniProt Q9H015); assay: Vincristine uptake screen, HeLa cells overexpressing hOCTN1; assay type: in vitro ADME
# Protocol: as §1, §2
# rOATP1A5 = rOATP1A5 (Rattus norvegicus, UniProt O88397); assay: Vincristine uptake screen, HeLa cells overexpressing rOATP1A5; assay type: in vitro ADME
# Protocol: as §1, §2
# rOCT1 = rOCT1 (Rattus norvegicus, UniProt Q63089); assay: Vincristine uptake screen, HeLa cells overexpressing rOCT1; assay type: in vitro ADME
# Protocol: as §1, §2
# hOATP4A1 = hOATP4A1 (Homo sapiens, UniProt Q96BD0); assay: Vincristine uptake screen, HeLa cells overexpressing hOATP4A1; assay type: in vitro ADME
# Protocol: as §1, §2
# [7] = WT mice, nilotinib 100 mg/kg p.o. 30 min before each vincristine 1 mg/kg, 4 weeks
# [8] = OATP1B2(-/-) mice + Nilotinib, Baseline
# [9] = OATP1B2(-/-) mice + Nilotinib, Week 4
# [10] = Wild-type mice + Nilotinib, Baseline
# [11] = Wild-type mice + Nilotinib, Week 4
# [12] = KO (OATP1B2-/-) mice, vincristine 1 mg/kg weekly i.p. + vehicle pretreatment, 4 weeks
# [13] = OATP1B2(-/-) mice, vincristine 1 mg/kg weekly, Week 4
# Sequence of rOCT1 (Q63089 whole entry): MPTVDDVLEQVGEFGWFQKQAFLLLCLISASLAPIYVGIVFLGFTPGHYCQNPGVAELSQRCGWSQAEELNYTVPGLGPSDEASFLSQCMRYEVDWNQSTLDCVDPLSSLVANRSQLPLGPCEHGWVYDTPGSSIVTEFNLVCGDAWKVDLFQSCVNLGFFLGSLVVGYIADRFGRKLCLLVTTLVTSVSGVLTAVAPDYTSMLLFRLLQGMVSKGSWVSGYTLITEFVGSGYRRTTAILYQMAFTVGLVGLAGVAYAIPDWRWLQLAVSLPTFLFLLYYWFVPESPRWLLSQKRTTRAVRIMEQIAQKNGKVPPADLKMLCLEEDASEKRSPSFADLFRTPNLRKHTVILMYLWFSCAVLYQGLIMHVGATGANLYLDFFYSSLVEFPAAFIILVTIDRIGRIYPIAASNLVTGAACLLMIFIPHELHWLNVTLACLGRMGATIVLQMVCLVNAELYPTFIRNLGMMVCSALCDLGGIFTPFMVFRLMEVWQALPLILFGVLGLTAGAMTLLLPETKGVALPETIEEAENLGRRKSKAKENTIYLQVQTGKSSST
# Sequence of rOATP1A5 (O88397 whole entry): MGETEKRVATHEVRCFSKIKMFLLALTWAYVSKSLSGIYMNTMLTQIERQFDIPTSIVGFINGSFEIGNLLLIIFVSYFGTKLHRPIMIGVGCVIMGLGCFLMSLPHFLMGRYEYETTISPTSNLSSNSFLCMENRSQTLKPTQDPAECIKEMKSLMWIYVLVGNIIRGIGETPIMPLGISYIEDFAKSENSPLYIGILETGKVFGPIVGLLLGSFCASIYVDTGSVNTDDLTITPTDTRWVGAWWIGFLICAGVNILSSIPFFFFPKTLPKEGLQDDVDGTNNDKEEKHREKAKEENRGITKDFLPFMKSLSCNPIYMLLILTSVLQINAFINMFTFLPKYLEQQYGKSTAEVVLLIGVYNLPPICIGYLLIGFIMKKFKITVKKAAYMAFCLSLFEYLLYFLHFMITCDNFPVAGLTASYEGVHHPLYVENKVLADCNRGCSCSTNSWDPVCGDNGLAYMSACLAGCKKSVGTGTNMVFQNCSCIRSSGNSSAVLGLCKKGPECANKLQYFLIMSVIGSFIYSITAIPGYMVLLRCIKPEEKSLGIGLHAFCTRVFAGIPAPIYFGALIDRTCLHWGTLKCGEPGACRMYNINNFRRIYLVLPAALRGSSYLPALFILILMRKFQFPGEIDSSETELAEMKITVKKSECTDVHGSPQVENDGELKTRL
# Sequence of rASBT (Q62633 whole entry): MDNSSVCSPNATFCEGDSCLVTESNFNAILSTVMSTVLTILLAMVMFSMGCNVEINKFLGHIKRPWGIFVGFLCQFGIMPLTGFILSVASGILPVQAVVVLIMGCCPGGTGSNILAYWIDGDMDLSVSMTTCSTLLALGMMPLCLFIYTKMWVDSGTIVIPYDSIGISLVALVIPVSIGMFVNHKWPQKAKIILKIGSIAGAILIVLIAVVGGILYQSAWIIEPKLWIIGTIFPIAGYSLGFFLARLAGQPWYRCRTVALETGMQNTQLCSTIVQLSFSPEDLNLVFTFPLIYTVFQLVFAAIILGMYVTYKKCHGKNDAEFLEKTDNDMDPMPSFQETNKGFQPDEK
# Sequence of hOCTN1 (Q9H015 whole entry): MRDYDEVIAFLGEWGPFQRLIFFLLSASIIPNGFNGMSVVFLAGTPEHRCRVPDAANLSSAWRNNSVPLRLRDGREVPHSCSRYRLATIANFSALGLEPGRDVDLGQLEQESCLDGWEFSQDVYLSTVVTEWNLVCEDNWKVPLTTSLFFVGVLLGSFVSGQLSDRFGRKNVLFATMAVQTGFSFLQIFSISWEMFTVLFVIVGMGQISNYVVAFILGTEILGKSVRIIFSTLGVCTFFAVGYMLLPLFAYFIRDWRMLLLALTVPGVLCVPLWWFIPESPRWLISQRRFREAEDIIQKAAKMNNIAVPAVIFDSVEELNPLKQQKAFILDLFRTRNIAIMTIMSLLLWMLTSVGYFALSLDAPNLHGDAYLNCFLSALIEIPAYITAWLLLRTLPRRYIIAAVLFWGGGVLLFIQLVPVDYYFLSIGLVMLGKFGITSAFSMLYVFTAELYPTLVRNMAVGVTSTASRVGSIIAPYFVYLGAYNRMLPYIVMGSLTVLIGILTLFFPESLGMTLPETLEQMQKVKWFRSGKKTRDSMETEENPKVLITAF
# Sequence of hOATP4A1 (Q96BD0 whole entry): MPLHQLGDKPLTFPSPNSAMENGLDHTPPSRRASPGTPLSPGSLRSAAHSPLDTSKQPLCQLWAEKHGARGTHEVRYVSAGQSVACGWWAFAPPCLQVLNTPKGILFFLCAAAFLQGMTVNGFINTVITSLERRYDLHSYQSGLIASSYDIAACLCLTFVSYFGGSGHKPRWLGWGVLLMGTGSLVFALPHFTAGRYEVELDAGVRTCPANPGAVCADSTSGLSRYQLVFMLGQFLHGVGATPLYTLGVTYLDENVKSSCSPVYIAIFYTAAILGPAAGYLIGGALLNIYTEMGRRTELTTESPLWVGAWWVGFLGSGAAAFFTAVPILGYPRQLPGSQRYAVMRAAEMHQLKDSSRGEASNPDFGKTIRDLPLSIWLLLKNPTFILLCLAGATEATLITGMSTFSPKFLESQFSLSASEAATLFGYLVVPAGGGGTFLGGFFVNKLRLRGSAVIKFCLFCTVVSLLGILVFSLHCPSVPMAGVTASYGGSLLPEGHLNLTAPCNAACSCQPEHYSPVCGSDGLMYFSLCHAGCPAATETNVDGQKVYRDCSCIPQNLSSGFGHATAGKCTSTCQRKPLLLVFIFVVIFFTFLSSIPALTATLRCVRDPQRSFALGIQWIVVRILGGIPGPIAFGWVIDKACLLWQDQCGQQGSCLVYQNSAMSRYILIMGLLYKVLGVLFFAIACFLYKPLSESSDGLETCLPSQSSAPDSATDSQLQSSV
compound,measurement,setting,value
"Cc1cn(-c2cc(NC(=O)c3ccc(C)c(Nc4nccc(-c5cccnc5)n4)c3)cc(C(F)(F)F)c2)cn1 [Nilotinib, nilotinib]",Influence of pretreatment on accumulation of vincristine in whole DRG samples,"[1]; nilotinib 100 mg/kg, vincristine 1 mg/kg",significantly diminished by nilotinib
same,"Protection against vincristine-associated changes in mechanical allodynia, thermal hyperalgesia and sciatic nerve maximal AMP",mice [2]; 100 mg/kg orally 30 minutes before each of 4 vincristine doses of 1 mg/kg,effectively protected against treatment-associated changes
same,EβG uptake (% of vehicle),mOATP1B2 [3],37.5921 % of vehicle and 30.8257 % of vehicle and 32.2185 % of vehicle
same,Cell area changes (%Δ from baseline),DRG neurons; OATP1B2(-/-) mice + Nilotinib,0.695% and -1.012% and -0.86%
same,Cell area changes (%Δ from baseline),DRG neurons; Wild-type mice + Nilotinib,0.351% and -0.994% and -0.034%
same,Prevention of vincristine-induced reduction in cell size of DRG neurons,DRG neurons; nilotinib 100 mg/kg p.o. pretreatment,could be prevented by pretreatment with nilotinib
same,Paw withdrawal latency (%Δ from baseline),"mice [4]; KO (OATP1B2-/-) mice, nilotinib 100 mg/kg p.o. 30 min before each vincristine 1 mg/kg, 4 weeks",81.1 %Δ from baseline and 88.2 %Δ from baseline and 119.5 %Δ from baseline and 100.4 %Δ from baseline and 93.8 %Δ from baseline and 69.5 %Δ from baseline
same,Paw withdrawal latency (%Δ from baseline),mice [4]; [7],137.5 %Δ from baseline and 110.5 %Δ from baseline and 107.4 %Δ from baseline and 126 %Δ from baseline and 95.3 %Δ from baseline and 92.7 %Δ from baseline
same,Vincristine uptake (% of vehicle),mOATP1B2 [5],73.0702 % of vehicle and 58.7366 % of vehicle and 55.2034 % of vehicle and 63.6149 % of vehicle and 58.7604 % of vehicle and 51.7599 % of vehicle
same,Caudal nerve amplitude,mice [6]; [8],95.6% and 93.7% and 108.6% and 106% and 98.1%
same,Caudal nerve velocity,mice [6]; [8],102.8% and 100.9% and 101.1% and 98% and 97.3%
same,Sciatic nerve amplitude,mice [6]; [8],114.4% and 121.2% and 118.7% and 82.8% and 93.6% and 69.3%
same,Sciatic nerve velocity,mice [6]; [8],95.7% and 106.4% and 97.8% and 107.3% and 98.7% and 94.1%
same,Caudal nerve amplitude,mice [6]; [9],89.3% and 94% and 95.6% and 104.4% and 86.9%
same,Caudal nerve velocity,mice [6]; [9],97.1% and 98.5% and 95% and 100.3% and 98.1% and 98.7%
same,Sciatic nerve velocity,mice [6]; [9],92.3% and 108.6% and 101.5% and 100.5% and 93.7% and 102.8%
same,Sciatic nerve amplitude,mice [6]; [7],108.6 %Δ from baseline and 88.8 %Δ from baseline and 77.9 %Δ from baseline and 89.5 %Δ from baseline and 98.8 %Δ from baseline and 89.1 %Δ from baseline
same,Caudal nerve amplitude,mice [6]; [10],120.6% and 88.2% and 115.9% and 89.2% and 91.2% and 94.8%
same,Caudal nerve velocity,mice [6]; [10],98.2% and 90.4% and 108% and 104.2% and 102% and 97.3%
same,Sciatic nerve amplitude,mice [6]; [10],97.8% and 93% and 117% and 84.6% and 113.5% and 94%
same,Sciatic nerve velocity,mice [6]; [10],102.2% and 108.4% and 96.7% and 95.6% and 94.8%
same,Caudal nerve amplitude,mice [6]; [11],63.6% and 79.9% and 91.5% and 110.8% and 56.5% and 79.7%
same,Caudal nerve velocity,mice [6]; [11],92.7% and 93.3% and 98.1% and 103.4% and 110.3% and 95.5%
same,Sciatic nerve amplitude,mice [6]; [11],89.1% and 108.6% and 88.8% and 77.9% and 89.5% and 98.8%
same,Sciatic nerve velocity,mice [6]; [11],101.8% and 112.7% and 95.6% and 97.9% and 93.4% and 98.9%
"CC[C@]1(O)C[C@H]2CN(CCc3c([nH]c4ccccc34)[C@@](C(=O)OC)(c3cc4c(cc3OC)N(C=O)[C@H]3[C@@](O)(C(=O)OC)[C@H](OC(C)=O)[C@]5(CC)C=CCN6CC[C@]43[C@@H]65)C2)C1 [Vincristine, vincristine]",Uptake of vincristine in liver and whole DRG samples,"[1]; OATP1B2-deficient vs WT mice, LC/MS/MS or MALDI-MS imaging",decreased uptake of vincristine
same,Protection against treatment-related mechanical allodynia by OATP1B2 deficiency,"mice [2]; mouse, in vivo",protection against treatment-related mechanical allodynia was only observed
same,Vincristine uptake (% of vector control),rASBT,95.00 % of vector control and 78.00 % of vector control and 81.00 % of vector control and 90.00 % of vector control and 114.00 % of vector control and 85.00 % of vector control and 118.00 % of vector control
same,Transport by OATP1B3 protein variants,OATP1B3 protein variants,impaired ability to transport vincristine
same,Cell size of DRG neurons,"DRG neurons; WT mice, vincristine 1 mg/kg weekly, 4 weeks",reduction in cell size of DRG neurons
same,Paw withdrawal latency (%Δ from baseline),mice [4]; [12],115.4 %Δ from baseline and 102.8 %Δ from baseline and 99.5 %Δ from baseline and 93.2 %Δ from baseline and 105.4 %Δ from baseline and 88 %Δ from baseline and 77.4 %Δ from baseline
same,Paw withdrawal latency (%Δ from baseline),mice [4]; [13],94.3 %Δ from baseline and 92.7 %Δ from baseline and 101.2 %Δ from baseline and 102.2 %Δ from baseline and 111.0 %Δ from baseline and 84.6 %Δ from baseline and 112.1 %Δ from baseline
same,Paw withdrawal latency (%Δ from baseline),"mice [4]; WT mice, vincristine 1 mg/kg weekly i.p. + vehicle pretreatment, 4 weeks",66.8 %Δ from baseline and 70.6 %Δ from baseline and 94.2 %Δ from baseline and 54.6 %Δ from baseline and 68.3 %Δ from baseline and 64.2 %Δ from baseline and 82.5 %Δ from baseline
same,Paw withdrawal latency (%Δ from baseline),"mice [4]; Wild-type mice, vincristine 1 mg/kg weekly, Week 4",61.8 %Δ from baseline and 39.1 %Δ from baseline and 56.0 %Δ from baseline and 42.8 %Δ from baseline and 56.3 %Δ from baseline and 55.6 %Δ from baseline
same,Incidence of sensory peripheral neurotoxicity,patients with cancer,up to 100%
same,Vincristine uptake (% of vector control),hOCTN1,169.00 % of vector control and 132.00 % of vector control and 109.00 % of vector control and 131.00 % of vector control and 135.00 % of vector control and 167.00 % of vector control and 158.00 % of vector control
same,Vincristine uptake (% of vector control),rOATP1A5,107.00 % of vector control and 77.00 % of vector control and 126.00 % of vector control and 95.00 % of vector control and 111.00 % of vector control and 145.00 % of vector control and 98.00 % of vector control
same,Vincristine uptake (% of vector control),rOCT1,113.00 % of vector control and 108.00 % of vector control and 138.00 % of vector control and 121.00 % of vector control
same,Sciatic nerve amplitude,mice [6]; [12],107.5 %Δ from baseline and 81.9 %Δ from baseline and 90.9 %Δ from baseline and 97.4 %Δ from baseline and 87.3 %Δ from baseline and 91.9 %Δ from baseline and 109.9 %Δ from baseline
same,Sciatic nerve amplitude,mice [6]; [13],90.9 %Δ from baseline and 97.4 %Δ from baseline and 87.3 %Δ from baseline and 91.9 %Δ from baseline and 109.9 %Δ from baseline and 107.5 %Δ from baseline and 81.9 %Δ from baseline
same,Vincristine uptake (% of vector control),hOATP4A1,134.00 % of vector control and 105.00 % of vector control and 130.00 % of vector control and 116.00 % of vector control and 108.00 % of vector control and 117.00 % of vector control and 144.00 % of vector control and 140.00 % of vector control
